Values of other authors in patent US20240173376A1, “TREM-1 INHIBITORS FOR THE TREATMENT OF MARFAN SYNDROME” (INSERM (INSTITUT NATIONAL DE LA SANTÉ ET DE LA RECHERCHE …, priority 2021, published 2024).

Legend:
AT1R [1] = target: T1, AT1R (Homo sapiens, UniProt P30556)
T1 construct: host or cells: patients in randomized clinical studies
T1 sequence (P30556 1-359): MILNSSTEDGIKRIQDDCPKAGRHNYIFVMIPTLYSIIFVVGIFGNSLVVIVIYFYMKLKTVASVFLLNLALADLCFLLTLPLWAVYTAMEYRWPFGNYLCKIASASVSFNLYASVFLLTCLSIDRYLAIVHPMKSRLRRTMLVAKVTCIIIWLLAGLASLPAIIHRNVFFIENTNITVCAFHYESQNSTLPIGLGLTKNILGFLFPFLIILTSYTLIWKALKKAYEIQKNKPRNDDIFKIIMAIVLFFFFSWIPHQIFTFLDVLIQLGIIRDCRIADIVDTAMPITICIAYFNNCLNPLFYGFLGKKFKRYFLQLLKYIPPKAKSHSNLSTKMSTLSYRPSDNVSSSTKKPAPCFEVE

AT1R [2] = conditions: animal model of Marfan's disease (Hibashi et al, Science, 2006)
[3] = Marfan patients (Shores et al 1994; Ladouceur et al 2007)

| benefit in humans (AT1R [1]; randomized, double-blind, multicenter study (Milleron et al, Eur Heart J)) | progression of aortic dilatation in humans (AT1R [1]; study with comparable methodology, N=192 (Mullen et al. Lancet 2019)) | SMILES | arterial wall architecture and aortic dilatation (AT1R [2]) | aortic dilatation and risk of dissection [3] |
| --- | --- | --- | --- | --- |
| no benefit | a benefit | CCCCc1nc(Cl)c(CO)n1Cc1ccc(-c2ccccc2-c2nn[nH]n2)cc1 [Losartan] | improves arterial wall architecture and reduces aortic dilatation | – |
| – | – | CC(C)NCC(O)COc1cccc2ccccc12 (stereo not shown) [propranolol] | – | limits aortic dilatation and the risk of dissection |
